We go through 4 molecules from ChEMBL document CHEMBL6096666, “Design, synthesis and biological evaluation of alginate oligosaccharide derivatives” (Bioorg Med Chem Lett, 2025).

Active and inactive are the calls of the source. The rule behind the calls is not given here.

Assay [1] deals with HK-2. Description: Anti-inflammatory activity against H/R induced damage in human HK-2 cells assessed as inhibition of TLR4 protein expression pretreated with compound followed by hypoxic reoxygenation induction. The format is functional, cell-based.
The species named for assay [2] is Rattus norvegicus. Description: Protection against kidney ischemia-reperfusion injury in rat model assessed as decrease in blood creatinine level. The format is functional, organism-based.
The subject of assay [3] is HK-2. Kind of assay: Anti-inflammatory activity against H/R induced damage in human HK-2 cells assessed as inhibition of p-NFkappaB protein expression pretreated with compound followed by hypoxic reoxygenation induction. It counts as functional, cell-based.
Assay [4] has as its system HK-2. Description: Anti-inflammatory activity against H/R induced damage in human HK-2 cells assessed as inhibition of MyD88 protein expression pretreated with compound followed by hypoxic reoxygenation induction. The format is functional, cell-based.
Assay [5] relates to HK-2. Kind of assay: Anti-inflammatory activity against H/R induced damage in human HK-2 cells assessed as inhibition of IL-1beta protein expression pretreated with compound followed by hypoxic reoxygenation induction. It counts as functional, cell-based.

As for `O=C(O)[C@@H]1C[C@@H](O)[C@@H](O)[C@H](O[C@@H]2[C@@H](O)[C@@H](O)[C@@H](O)O[C@@H]2C(=O)O)O1`, the outcome in assay [1] and in assay [2] was Active.

`O=C(O)[C@@H]1C[C@@H](O)[C@@H](O)[C@H](O[C@@H]2[C@@H](O)[C@@H](O)[C@H](O[C@@H]3[C@@H](O)[C@@H](O)[C@H](O[C@@H]4[C@@H](O)[C@@H](O)[C@@H](O)O[C@@H]4C(=O)O)O[C@@H]3C(=O)O)O[C@@H]2C(=O)O)O1`: in assay [1], the result was Active.

For the molecule `O=C(O)[C@@H]1C[C@@H](O)[C@@H](O)[C@H](O[C@@H]2[C@@H](O)[C@@H](O)[C@H](O[C@H]([C@@H](O)[C@@H](O)C(=O)O)[C@H](O)C(=O)O)O[C@@H]2C(=O)O)O1`, the result in assay [1], in assay [3], in assay [4] and in assay [5] was Active.

For `O=C(O)[C@@H]1C[C@@H](O)[C@@H](O)[C@H](O[C@@H]2[C@@H](O)[C@@H](O)[C@H](O[C@@H]3[C@@H](O)[C@@H](O)[C@@H](O)O[C@@H]3C(=O)O)O[C@@H]2C(=O)O)O1`, the result in assay [5] and in assay [2] was Active.
